Results published in PubChem BioAssay (NCI).
“And” between values parts separate entries of the source, which are not always exact repeats. Equal values may be shown once.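 In this assay, cells in 96-well plates receive the compound at five concentrations for 48 hours. Endpoints are linearly interpolated between the surrounding concentrations. Abbreviation: GI50, concentration required for 50% inhibition of growth. TGI denotes the concentration required for complete inhibition of growth.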

Experiments:
Experiment in all cases: NCI-60 cell line screen, 48 h
OVCAR-4 ovarian = test system: OVCAR-4 ovarian
EKVX NSCLC = test system: EKVX NSCLC
NCI-H460 lung = test system: NCI-H460 lung
HCC-2998 colon = test system: HCC-2998 colon
786-0 renal = test system: 786-0 renal
BT-549 breast = test system: BT-549 breast
PC-3 prostate = test system: PC-3 prostate
MCF7 breast = test system: MCF7 breast
U251 CNS = test system: U251 CNS
HT29 colon = test system: HT29 colon

Row | Structure (SMILES) | TGI (OVCAR-4 ovarian) | TGI (EKVX NSCLC) | TGI (NCI-H460 lung) | TGI (HCC-2998 colon) | TGI (786-0 renal) | TGI (BT-549 breast) | TGI (PC-3 prostate) | TGI (MCF7 breast) | TGI (U251 CNS) | TGI (HT29 colon) | GI50 (OVCAR-4 ovarian) | GI50 (EKVX NSCLC) | GI50 (NCI-H460 lung) | GI50 (HCC-2998 colon) | GI50 (786-0 renal) | GI50 (BT-549 breast) | GI50 (PC-3 prostate) | GI50 (MCF7 breast) | GI50 (U251 CNS) | GI50 (HT29 colon)
1 | C[C@H]1CC[C@@H]2[C@@H](C)[C@H]3[C@H](C[C@H]4[C@@H]5CC=C6C[C@@H](O)CC[C@]6(C)[C@H]5C[C@H](O)[C@]34C)N2C1 | > 100 µM | > 100 µM | > 100 µM | > 100 µM | > 100 µM | > 100 µM | > 100 µM | > 100 µM | > 100 µM | > 100 µM | – | – | – | – | – | – | – | – | – | –
2 | C=C1C(=O)O[C@@H]2C[C@@H]1CC[C@@]1(C)O[C@@H]1CC[C@@]1(C)O[C@@H]1CC[C@@]2(C)O | 34.3 µM | > 100 µM | > 100 µM | 21.1 µM | 42.2 µM | 59.6 µM | > 100 µM | > 100 µM | 36.1 µM | 63.2 µM | 12.3 µM | 32.3 µM | 60.3 µM | 4.21 µM | 19.2 µM | 22.1 µM | 34.9 µM | 55.2 µM | 16.1 µM | 21 µM
3 | CC[CH2][Sn]([Cl])([Cl])[CH2]CC | 25.6 µM | 26.4 µM | 34.3 µM | 22 µM | 23 µM | 20.5 µM | 35.9 µM | 16.5 µM | 16.5 µM | 30.9 µM | 12.9 µM | 12.3 µM | 17.2 µM | 10.1 µM | 10.8 µM | 7.87 µM | 16.2 µM | 3.27 µM | 3.9 µM | 14.4 µM
4 | COc1ccc(C2=C(c3cc(OC)c(OC)c(OC)c3)C(=O)CC2)cc1 | > 100 µM | > 100 µM | – | 18.2 µM | > 100 µM | > 22.7 µM | > 100 µM | > 100 µM | > 100 µM | 15.3 µM | 0.689 µM | 0.699 µM | 0.224 µM | 0.244 µM | 0.425 µM | 0.919 µM | 0.203 µM | 0.0585 µM | 0.324 µM | 0.0845 µM
5 | CC[C@@H](C(=O)[C@@H](C)[C@@H](O)[C@H](C)[C@@H]1O[C@@H]([C@@H](CC)C(=O)O)CC[C@@H]1C)[C@H]1OC2(C=C[C@@H](O)[C@]3(CC[C@@](C)([C@H]4CC[C@](O)(CC)[C@H](C)O4)O3)O2)[C@H](C)C[C@@H]1C (some centres not stated) | 49.3 µM | > 32 µM | 7.79 µM | 10.5 µM | 12.4 µM | 2.97 µM | > 50 µM | > 39.2 µM | 5.56 µM | 19.7 µM | 3.01 µM | 0.22 µM | 0.324 µM | 0.105 µM | 0.589 µM | 0.233 µM | 0.0408 µM | 0.154 µM | 0.135 µM | 0.231 µM
6 | N#CN1CCC[C@H]1C(=O)N1CCc2c(-c3[nH]nc4ncccc34)cccc21 | 13.3 µM | 25 µM | 11.1 µM | 11.6 µM | 11.5 µM | 0.0993 µM | 23.6 µM | 11 µM | 2.91 µM | 0.0129 µM | < 0.01 µM | 0.101 µM | 0.105 µM | 0.12 µM | < 0.01 µM | < 0.01 µM | < 0.01 µM | < 0.01 µM | 0.281 µM | < 0.01 µM
7 | CC(=O)OC(C)(C)N=Nc1ccc(Br)cc1 | > 100 µM | > 100 µM | 26 µM | > 100 µM | > 100 µM | > 100 µM | > 100 µM | > 100 µM | > 100 µM | > 100 µM | – | – | – | – | – | – | – | – | – | –
8 | CN(C)CCCNc1nccc(-c2c(-c3ccc(F)cc3)nn3cc(C(F)(F)F)ccc23)n1 | > 25 µM | > 25 µM | > 25 µM | 15 µM | > 25 µM | > 25 µM | > 25 µM | > 18.2 µM | > 25 µM | > 23.9 µM | 11 µM | 18.8 µM | 6.97 µM | 4.54 µM | 7.69 µM | > 23.4 µM | 9.36 µM | 7.77 µM | 10.7 µM | 6.58 µM
9 | O=C(c1cccs1)c1c(C(F)(F)F)n([O-])c2ccc(F)cc2[n+]1=O | 2.75 µM | 3.7 µM | 3.84 µM | 1.98 µM | 2.74 µM | 2.6 µM | 2.33 µM | 3.12 µM | 2.6 µM | 2.47 µM | 1.41 µM | 1.69 µM | 1.38 µM | 0.8 µM | 1.32 µM | 0.815 µM | 0.961 µM | 0.454 µM | 1.31 µM | 0.868 µM
10 | O=C1/C(=C/c2ccccc2)CCC/C1=C\c1ccccc1 | 11.8 µM and 32.4 µM | 14.8 µM and 38.2 µM and 39.1 µM | 12 µM and 34 µM and 46.8 µM | 25.8 µM and 7.64 µM | 11.9 µM and 25.9 µM and 27.1 µM | 10.9 µM and 24 µM | 11 µM and 42.5 µM | 12.4 µM and 21 µM | 11.5 µM and 14.8 µM and 12.9 µM | 11.5 µM and 18.7 µM and 5.96 µM | 6.18 µM | 7.8 µM and 15.8 µM | 6.09 µM and 19.8 µM | 2.72 µM | 6.62 µM | – | 14.3 µM | 3.46 µM | 3.33 µM | 2.54 µM
11 | CC[C@H](C)n1cc(C)c2c(C(=O)NCc3c(C)cc(C)[nH]c3=O)cc(-c3ccc(N4CCNCC4)nc3)cc21 | 28.9 µM and 26.4 µM | 27 µM and 27.6 µM | 24.7 µM and 26 µM | 30.2 µM and 23.4 µM | 24.4 µM and 25.2 µM | 30.5 µM and 27.7 µM | 31.5 µM and 27.3 µM | 24.9 µM and 21.8 µM | 23.1 µM and 22.7 µM | 18.4 µM and 20.6 µM | 13.4 µM and 12.5 µM | 12.6 µM and 13.6 µM | 12.3 µM and 12.5 µM | 14.7 µM and 9.46 µM | 10.6 µM and 11.7 µM | 15.4 µM and 13.5 µM | 17.3 µM and 13.9 µM | 10.4 µM and 6.88 µM | 10.9 µM and 10.2 µM | 5.19 µM and 6.53 µM
12 | CCOC(=O)c1c(C)n2c(=O)cc(C)c3c(OC(C)=O)c(OC(C)=O)cc1c32 | > 33.7 µM | 17.8 µM | 18.9 µM | 15.8 µM | – | 46.1 µM | > 49.7 µM | 14 µM | > 57.7 µM | 47.5 µM | 3.29 µM | 4.96 µM | 4.01 µM | 2.45 µM | 3.75 µM | 6.21 µM | 5.65 µM | 3.27 µM | 4.76 µM | 10.9 µM
13 | Nc1ccccc1NC(=O)c1ccc(CN2CCC/C(=C\c3cccc(Cl)c3)C2=O)cc1 | > 100 µM | > 100 µM | > 100 µM | 5.7 µM | 2.17 µM | 5.52 µM | 14.1 µM | 26.6 µM | 13.2 µM | 1.89 µM | 1.49 µM | 0.567 µM | 0.0962 µM | 1.18 µM | 0.366 µM | 1.4 µM | 0.463 µM | 0.0332 µM | 0.138 µM | 0.144 µM
